The subject of series [1] is Creeping bentgrass. As to the kind of experiment: Phytotoxicity rating, creeping bentgrass greens. It counts as in vivo, Agrostis. To be noted: bi-weekly application. On the procedure:
(§1) Creeping bentgrass is a major choice for fairways, golf greens and tees in the cool-temperate zone. It has the ability to withstand close mowing and is very “aggressive” allowing for quick recovery from injuries. It was fertilized in greens at half, full and […] rate of application (0.063, 0.125 and 0.25 lbs nitrogen/1000 sq ft) on a bi-weekly basis. Turfgrass quality and toxicity were measured on a 1-9 visual basis, with 9 representing the highest quality turf or the most injury respectively. Fairways toxicity ratings and turfgrass quality ratings are shown in FIGS. 12 and 13, respectively.

Series [2] has as its system Creeping bentgrass. As to the kind of experiment: Turfgrass quality rating, creeping bentgrass greens. The note with it: creeping bentgrass greens, 0.063, 0.125 and 0.25 lbs nitrogen/1000 sq ft bi-weekly. It counts as in vivo, Agrostis. On the procedure: as §1
For series [3], the system named is Bermuda grass. As to the kind of experiment: Turfgrass quality after true foliar application, Bermuda grass fairways. It counts as in vivo, Cynodon spp. To be noted: mean over seven weeks. The source says:
(§2) True foliar applications were studied with Tall Fescue grass. Normal foliar rates of 0.5, 1.0 and 3.0 lb nitrogen per 1000 sq ft were used with water volumes in the range of 0.5 to 2.0 gallons per 1000 sq ft (for comparison non-foliar, normal liquid spray applications are typically more than 4.0 gallons of water per 1000 sq ft.) Results are presented in FIG. 15 for mean data taken during a 5 week period. […] However, as true application rates are ⅛ the 1× rate, burn potential for foliar applications is limited.
(§3) True foliar applications were studied with Bermuda grass in Fairways at the rates used in EXAMPLE 9. Results for mean data averaged over seven weeks for burn rate and turfgrass quality are presented in FIGS. 17 and 18, respectively. […] Lysine HCl had 3-5% burn levels depending upon the rate of application.

Series [4] deals with Creeping bentgrass. As to the kind of experiment: Turfgrass quality after true foliar application, creeping bentgrass greens and tees. The note with it: averaged over six weeks. It is filed as in vivo, Agrostis.
Description: as §2
True foliar applications were studied with creeping bentgrass on greens and tees at the rates used in Example 9.

The next series has as its system Kentucky blue grass. As to the kind of experiment: Turfgrass quality rating, Kentucky blue grass lawns. It counts as in vivo, Poa pratensis. To be noted: 1.0 lb nitrogen per 1000 sq ft per month. On the procedure:
Kentucky blue grass is often used as a turfgrass species in the cool, temperature zone as a blend of varieties or within specialized “mixes” created for various geographical locations. In this embodiment, Kentucky blue grass was fertilized under a normal application rate of 1.0 lb nitrogen per 1000 sq ft per month in high quality, high maintenance lawns. Turfgrass quality and toxicity were measured on a 1-9 visual basis with 9 representing the highest quality turf or the most injury, respectively.

The test system of series [5] is Bermuda grass. As to the kind of experiment: Burn after true foliar application, Bermuda grass fairways. It counts as in vivo, Cynodon spp.
Description: as §2, §3

The next series has as its system St. Augustine grass. As to the kind of experiment: Turfgrass quality rating, St. Augustine grass fertilized monthly. It counts as in vivo, Stenotaphrum secundatum. The source says: St. Augustine grass was fertilized monthly at rates of between 0.5 and 3.0 lbs nitrogen/1000 square feet with lysine HCL and Liquid Lysine, which were compared with inorganic, quick release/response urea and the organic industry standard Milorganite. Urea, lysine HCl, and liquid lysine were spray/liquid applied, while Milorganite was applied as a solid granular product.
Overall turf quality was rated weekly using a visual scale of 1-9 with 9 representing perfect turf. Ratings higher than 6.0 are considered acceptable, while any rating below 6.0 is unacceptable.

The next series in a line: Solubility in water. To be noted: 25° C., read-out: solubility in H2O. It counts as physicochemical.
The next series relates to Ultra-Dwarf Bermudagrass. As to the kind of experiment: Turfgrass quality rating, Ultra-Dwarf Bermudagrass golf greens. It is filed as in vivo, Cynodon spp. The note with it: normal 0.125 lb nitrogen/week rate. The text has this:
Ultra-dwarf bermudagrass is typically mown at ⅛ inch or lower and fertilized on a weekly basis which is termed “spoon feeding”. Lysine HCl, liquid lysine, Milogranite and urea were applied under substantially the same conditions as described in Example 1. Overall turf quality was rated weekly using a visual scale of 1-9 with 9 representing perfect turf. Ratings higher than 6.0 are considered acceptable while any rating below 6.0 is unacceptable.

In the next series the test system is Bermudagrass. As to the kind of experiment: Turfgrass quality rating, Bermudagrass in golf course fairway conditions. It is filed as in vivo, Cynodon spp. To be noted: monthly 0.5-3.0 lbs nitrogen/1000 sq ft. The procedure: Bermudagrass was grown and maintained in golf course fairway conditions. The bermudagrass was mown at a ½ inch height of cut and fertilized monthly between 0.5 and 3.0 lbs nitrogen per 1000 square feet. Lysine HCL and liquid lysine in aqueous solutions were compared with inorganic, quick release/response urea and the organic industry standard Milorganite. Urea, lysine HCl and liquid lysine were spray/liquid applied, while Milorganite was applied as a solid granular product.
Overall turf quality was rated weekly using a visual scale of 1-9 with 9 representing perfect turf (rarely attained, if ever). Ratings higher than 6.0 are considered acceptable while any rating below 6.0 is considered unacceptable. […] All fertilizers responded with acceptable turf ratings at all application rates, but lysine HCL trended better.
Bermudagrass was grown and maintained in golf course fairway conditions. The bermudagrass was mown at a ½ inch height of cut and fertilized monthly between 0.5 and 3.0 lbs nitrogen per 1000 square feet. Lysine HCl applied as a solid granular was compared with inorganic, quick release/response urea and the organic industry standard Milorganite. Urea was spray/liquid applied, while Milorganite was applied as a solid granular product.
Lysine HCL was applied as a solid granular to compare with spray applied lysine HCL and liquid lysine. […]

For series [6], the system named is Creeping bentgrass. As to the kind of experiment: Phytotoxicity rating, creeping bentgrass fairways. It is filed as in vivo, Agrostis. The text has this:
Creeping bentgrass is a major choice for fairways, golf greens and tees in the cool-temperate zone. It has the ability to withstand close mowing and is very “aggressive” which allows for quick recovery from injuries. Creeping bentgrass was fertilized in Fairways substantially the same as described in example 1 at three different rates: half, full and 3× normal rates (0.5, 1.0 and 3.0 lbs nitrogen/1000/month) applied on a monthly basis. Turfgrass quality ratings were taken every month from June through November along with “color” and “phytotoxicity” ratings. Turfgrass quality and toxicity were measured on a 1-9 visual basis with 9 representing the highest quality turf or most injury/burn to the turfgrass. Fairways toxicity ratings and turfgrass quality ratings are shown in FIGS. 10 and 11, respectively. The most crucial months with regard to fertilizer application toxicity are the mid-summer months of July and August due to hotter and more humid conditions which typically amplify any potential for fertilizer “burn” injury.

As a reminder, the solubility is how much of the substance goes into solution per volume. With `Cl.NCCCC[C@H](N)C(=O)O` [lysine HCl, lysine monohydrochloride], the “toxicity rating, visual 1-9” value in the series on Creeping bentgrass [1] (June and July) was “Slight and insignificant levels of toxicity”. The turfgrass quality rating entry in the series on Creeping bentgrass [2] was “slightly better than the blended synthetic products and Milogranite”; in the series with Bermuda grass [3], “better than Coron and control plots”; in the series on Creeping bentgrass [4], “statistically equal qualities as Coron”. Also, the turfgrass quality result in the series with Kentucky blue grass is “marginally better than urea”. Also, the burn level in the series on Bermuda grass [5] (depending upon rate of application, mean over seven weeks) was 3-5%. For the same compound, the burn potential result in the series with Bermuda grass [5] (turfgrasses recover quickly) was “high burn potential”. In addition, the “overall turfgrass quality and residual activity” value in the series with St. Augustine grass (half-rate of 0.5 lb nitrogen, ratings higher than 6.0 acceptable) is “acceptable overall turfgrass quality and residual activity”. For the same compound, in the series on St. Augustine grass (monthly 0.5-3.0 lbs nitrogen/1000 sq ft, spray applied, growing season, versus urea and Milorganite), the “overall turfgrass quality (visual scale 1-9)” value is “trended better than urea and milorganite”. Further, the “overall turfgrass quality rating” value with St. Augustine grass (standard 1.0 lb nitrogen rate, compared to urea and milorganite) is reported as “noticeably higher”. In addition, the solubility in the series “Solubility in water” was in the range of 500 to 600 mg/mL. Further, in the series on Ultra-Dwarf Bermudagrass, the “overall turf quality performance” value is given as “statistically the same as that of urea”. Also, in the series on Bermudagrass (applied as solid granular), the “overall turf quality (visual scale 1-9)” value is “as effective as or more effective than Milorganite and urea”. Also, the “total seasonal turfgrass quality (visual scale 1-9)” value with Bermudagrass (aqueous spray applied) was “seasonally better turfgrass quality at all rates tested compared to urea and milorganite”. Besides, the “phytotoxicity (injury) rating, visual 1-9” value with Creeping bentgrass [6] (July) was “insignificant level of injury”.

As to `NC(N)=O` [urea, reference compound], in the series with Creeping bentgrass [1] (August), the “toxicity rating, visual 1-9” value is reported as “significantly higher toxicity levels”. Also, the “phytotoxicity (injury) rating, visual 1-9” value in the series on Creeping bentgrass [6] (August) was “significantly more injury than liquid lysine and lysine HCl”.

The values are drawn from patent US20080269053A1, “Amino Acid Compositions and Methods of Using as Fertilizer” (priority 2007, published 2008).
